Measurements taken from patent US11753411B2, “Substituted pyrazolo[1,5-a]pyrimidines as TYK2 pseudokinase ligands” (Ventyx Biosciences, Inc., priority 2019, dated 2023).

Test system: not listed separately
Test: Human liver microsome stability assay
Assay type: in vitro ADME
Conditions: 0.5 mg/mL human liver microsomes, 37° C., pH 7.4; urea versus corresponding amide
Method: The microsome stability assay was carried out in 96-well microtiter plates at 37° C. Reaction mixtures (25 μL) contained a final concentration of 1 µM test compound, 0.5 mg/mL human liver microsomes protein, and 1 mM NADPH and/or 1 mM UDPGA (with alamethicin) in 100 mM potassium phosphate, pH 7.4 buffer with 3 mM MgCl2. At each of the time points (for example, 0, 15, 30, and 60 minutes), 150 μL of quench solution (100% acetonitrile with 0.1% formic acid) with internal standard was transferred to each well. Besides the zero minute controls, mixtures containing the same components except the NADPH were also prepared as the negative control. Verapamil was included as a positive control to verify assay performance. Plates were sealed, vortexed, and centrifuged at 4° C. for 15 minutes at 4000 rpm. The supernatant was transferred to fresh plates for LC/MS/MS analysis. Comparison data for microsome stability of urea compounds described herein versus the corresponding amide compounds are shown in Table 1.

half-life | SMILES
0.3 h | CNc1cc(Nc2cccc3c2OCCO3)nc2c(C(=O)NC3CC(O)C3)cnn12 (centres unmarked) [reference compound]
> 2 h | CNc1cc(Nc2cccc3c2OCCO3)nc2c(NC(=O)NC3CC(O)C3)cnn12 (centres unmarked) [drawing 281]
0.317 h | CNc1cc(Nc2cccc3c2OCCO3)nc2c(C(=O)NC3CC3)cnn12 [drawing 278, reference compound]
1 h | CNc1cc(Nc2cc(F)cc3c2OCCO3)nc2c(C(=O)N[C@@H]3C[C@@H]3F)cnn12 [drawing 280, reference compound]
> 2 h | CNc1cc(Nc2cc(F)cc3c2OCCO3)nc2c(NC(=O)N[C@@H]3C[C@@H]3F)cnn12 [drawing 279]
< 0.833 h | CNC(=O)c1cnn2c(NC)cc(Nc3cc(F)cc4c3OCCO4)nc12 [reference compound]
> 2 h | CNC(=O)Nc1cnn2c(NC)cc(Nc3cc(F)cc4c3OCCO4)nc12 [drawing 283]
> 2 h | CNc1cc(Nc2cccc3c2OCCO3)nc2c(NC(=O)NC3CC3)cnn12 [drawing 277]

Test system: not listed separately
Test: Rat pharmacokinetics (PK)
Assay type: in vivo
Conditions: rat plasma; IV group and PO group, route of the Cmax not given; urea versus corresponding amide
Method: Rat PK experiments were performed with an IV group and PO group included, with 3 rats per group. The formulation was solution for IV group and either solution or suspension formulation for the oral group(s). Plasma samples were harvested with K2EDTA as anticoagulant at 0.08, 0.25, 0.5, 1, 2, 4, 8, 12 and 24 hours for the IV group and at 0.25, 0.5, 1, 2, 4, 6, 8, 12 and 24 hours for the PO group, and analyzed by fit for purpose LC-MS/MS method. Non-compartmental analysis module in Phoenix WinNonlin® (Version 8.0) was used to assess the pharmacokinetic parameters. Maximum concentration (Cmax) were taken from the observed values.

Cmax | SMILES
1,800 ng/mL | CNc1cc(Nc2cccc3c2OCCO3)nc2c(NC(=O)NC3CCC3)cnn12 [drawing 289]
5,000 ng/mL | CNc1cc(Nc2cccc3c2OCCO3)nc2c(NC(=O)NC3CCC3)cnn12 [drawing 287]

Same assay, conditions: rat, plasma, IV group and PO group, route of the Cmax not given, urea versus corresponding amide, read-out: Cmax

Cmax | SMILES
200 ng/mL | CNC(=O)c1cnn2c(NC)cc(Nc3cc(C)cc(C)c3)nc12 [reference compound]
400 ng/mL | CNc1cc(Nc2cccc3c2OCCO3)nc2c(C(=O)NC3CC3)cnn12 [drawing 290, reference compound]
915 ng/mL | CNC(=O)Nc1cnn2c(NC)cc(Nc3cc(C)cc(C)c3)nc12 [drawing 291]
400 ng/mL | CNc1cc(Nc2cccc3c2OCCO3)nc2c(C(=O)N[C@@H]3C[C@@H]3F)cnn12 [reference compound]
1690 ng/mL | CNc1cc(Nc2cccc3c2OCCO3)nc2c(NC(=O)N[C@@H]3C[C@@H]3F)cnn12 [drawing 285]
1900 ng/mL | CNc1cc(Nc2cccc3c2OCCO3)nc2c(C(=O)NC3CCC3)cnn12 [reference compound]

Test system: IFN-a/Jak1 Tyk2
Test: Co-stimulation assay in lysed whole blood: IFNa (JAK1/TYK2) stimulated STAT1 phosphorylation
Assay type: cell-based
Conditions: Homo sapiens, 20 min, 100 ng/mL IFNa (with 10 ng/mL GM-CSF), pSTAT by flow cytometry
Method in brief: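 Lysed human whole blood (RBC-lysed, resuspended in cRPMI) pre-incubated with compound 1 h at 37 °C, then stimulated 20 min with IFNa 100 ng/mL plus GM-CSF 10 ng/mL (final). Fixed, permeabilised, stained for pSTAT1 (PE) and pSTAT5 (AF488); flow cytometry read-out, ≥5,000–10,000 cells acquired.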

IC50 | SMILES
1 to 10 µM | CNc1cc2nc3c(cnn13)NC(=O)NCCOc1cccc(c1)N2 [Compound 22, (1^3E,1^4E)-1^7-(methylamino)-4-oxa-2,7,9-triaza-1(5,3)-pyrazolo[1,5-a]pyrimidina-3(1,3)-benzenacyclononaphan-8-one]
1 to 10 µM | CNC(=O)Nc1cnn2c(NC)cc(Nc3ccc(OC)cc3)nc12 [Compound 151, 1-(5-((4-methoxyphenyl)amino)-7-(methylamino)pyrazolo[1,5-a]pyrimidin-3-yl)-3-methylurea]
< 1 µM | CNc1cc(Nc2cccc3c2OCCO3)nc2c(NC(=O)N[C@H](C)C#N)cnn12 [Compound 122, (R)-1-(1-cyanoethyl)-3-(5-((2,3-dihydrobenzo[b][1,4]dioxin-5-yl)amino)-7-(methylamino)pyrazolo[1,5-a]pyrimidin-3-yl)urea]
< 1 µM | CNc1cc(Nc2cccc3c2OCCO3)nc2c(NC(=O)NC3CC(CO)C3)cnn12 (centres unmarked) [Compound 47, 1-(5-((2,3-dihydrobenzo[b][1,4]dioxin-5-yl)amino)-7-(methylamino)pyrazolo[1,5-a]pyrimidin-3-yl)-3-(3-(hydroxymethyl)cyclobutyl)urea]
< 1 µM | CCNC(=O)Nc1cnn2c(NC)cc(Nc3cccc4c3OCCO4)nc12 [Compound 147, 1-(5-((2,3-dihydrobenzo[b][1,4]dioxin-5-yl)amino)-7-(methylamino)pyrazolo[1,5-a]pyrimidin-3-yl)-3-ethylurea]
1 to 10 µM | CNC(=O)Nc1cnn2c(NC)cc(Nc3cc(OC)ccc3OC)nc12 [Compound 67, 1-(5-((2,5-dimethoxyphenyl)amino)-7-(methylamino)pyrazolo[1,5-a]pyrimidin-3-yl)-3-methylurea]
< 1 µM | CNC(=O)Nc1cnn2c(NC)cc(-c3cn(C(C)C)c4ncccc34)nc12 [Compound 72, 1-(5-(1-isopropyl-1H-pyrrolo[2,3-b]pyridin-3-yl)-7-(methylamino)pyrazolo[1,5-a]pyrimidin-3-yl)-3-methylurea]
< 1 µM | CNc1cc(Nc2cc(C#N)cc3c2OCCO3)nc2c(NC(=O)NC3CC3)cnn12 [Compound 89, 1-(5-((7-cyano-2,3-dihydrobenzo[b][1,4]dioxin-5-yl)amino)-7-(methylamino)pyrazolo[1,5-a]pyrimidin-3-yl)-3-cyclopropylurea]
< 1 µM | CNc1cc(Nc2cc(F)cc3c2OCCO3)nc2c(NC(=O)N[C@H]3C[C@H]3F)cnn12 [Compound 42, 1-(5-((7-fluoro-2,3-dihydrobenzo[b][1,4]dioxin-5-yl)amino)-7-(methylamino)pyrazolo[1,5-a]pyrimidin-3-yl)-3-((1S,2R)-2-fluorocyclopropyl)urea]
≥ 10 µM | CNc1cc(Nc2cccc3c2OCCO3)nc2c(NC(=O)NC3(C#N)CC3)cnn12 [Compound 28, 1-(1-cyanocyclopropyl)-3-(5-((2,3-dihydrobenzo[b][1,4]dioxin-5-yl)amino)-7-(methylamino)pyrazolo[1,5-a]pyrimidin-3-yl)urea]
≥ 10 µM | CNc1cc(Nc2cc(C)cc(C)c2)nc2c(NC(=O)N[C@@H]3C[C@@H]3F)cnn12 [Compound 60, 1-(5-((3,5-dimethylphenyl)amino)-7-(methylamino)pyrazolo[1,5-a]pyrimidin-3-yl)-3-((1R,2S)-2-fluorocyclopropyl)urea]
1 to 10 µM | CNC(=O)Nc1cnn2c(NC)cc(Nc3ccnc4c3OCCO4)nc12 [Compound 92, 1-(5-((2,3-dihydro-[1,4]dioxino[2,3-b]pyridin-8-yl)amino)-7-(methylamino)pyrazolo[1,5-a]pyrimidin-3-yl)-3-methylurea]
< 1 µM | CNC(=O)Nc1cnn2c(NC)cc(Nc3cc(C(F)(F)F)cc4c3OCCO4)nc12 [Compound 76, 1-methyl-3-(7-(methylamino)-5-((7-(trifluoromethyl)-2,3-dihydrobenzo[b][1,4]dioxin-5-yl)amino)pyrazolo[1,5-a]pyrimidin-3-yl)urea]
1 to 10 µM | CNC(=O)Nc1cnn2c(NC)cc(Nc3ccccc3Oc3ccccc3)nc12 [Compound 161, 1-methyl-3-(7-(methylamino)-5-((2-phenoxyphenyl)amino)pyrazolo[1,5-a]pyrimidin-3-yl)urea]
< 1 µM | CNc1cc2nc3c(cnn13)NC(=O)NCCc1cccc(c1)N2 [Compound 25, (1^3E,1^4E)-1^7-(methylamino)-2,6,8-triaza-1(5,3)-pyrazolo[1,5-a]pyrimidina-3(1,3)-benzenacyclooctaphan-7-one]
< 1 µM | CNc1cc(-c2cn(C3CCOCC3)c3ncccc23)nc2c(NC(=O)NCC#N)cnn12 [Compound 137, 1-(cyanomethyl)-3-(7-(methylamino)-5-(1-(tetrahydro-2H-pyran-4-yl)-1H-pyrrolo[2,3-b]pyridin-3-yl)pyrazolo[1,5-a]pyrimidin-3-yl)urea]
< 1 µM | CNc1cc(Nc2cc(F)cc3c2OCCO3)nc2c(NC(=O)NC3CC3)cnn12 [Compound 69, 1-cyclopropyl-3-(5-((7-fluoro-2,3-dihydrobenzo[b][1,4]dioxin-5-yl)amino)-7-(methylamino)pyrazolo[1,5-a]pyrimidin-3-yl)urea]

Same assay, conditions: lysed human whole blood; 100 ng/mL IFNa (with 10 ng/mL GM-CSF), 20 minutes; pSTAT by flow cytometry

IC50 | SMILES
≥ 10 µM | CNc1cc(Nc2c(F)ccc3c2OCCO3)nc2c(NC(=O)NCC#N)cnn12 [Compound 174, 1-(cyanomethyl)-3-(5-((6-fluoro-2,3-dihydrobenzo[b][1,4]dioxin-5-yl)amino)-7-(methylamino)pyrazolo[1,5-a]pyrimidin-3-yl)urea]
1 to 10 µM | CNc1cc(Nc2c(F)ccc3c2OCCO3)nc2c(NC(=O)NCC#N)cnn12 [Compound 136, 1-(cyanomethyl)-3-(5-((6-fluoro-2,3-dihydrobenzo[b][1,4]dioxin-5-yl)amino)-7-(methylamino)pyrazolo[1,5-a]pyrimidin-3-yl)urea]
